Reference: patent US5602239A, “5-O-desosaminylerythronolide derivatives” (Taisho Pharmaceutical Co., Ltd., priority 1993, dated 1997)
Values after ≈ are worked out from the molar mass of the structure shown.

Experiments:
Format in all cases: cell-based
S. aureus 209P-JC = experiment: In vitro antibacterial activity (MIC), S. aureus 209P-JC; settings: Staphylococcus aureus, sensitive disc media, Japan Society of Chemotherapy method, read-out: MIC value (Minimum Inhibitory Concentration)
Procedure: (§1) The in vitro antibacterial activity of the compound of the present invention obtained in Example 9 against various experimental bacteria was measured using sensitive disc media (produced by Eiken Chemical Co.) according to the MIC measuring method specified by the Japan Society of Chemotherapy. 6-O-Methylerythromycin A was used as a comparative drug.

S. aureus Smith 4 = experiment: In vitro antibacterial activity (MIC), S. aureus Smith 4; settings: Staphylococcus aureus, SMITH4, sensitive disc media, Japan Society of Chemotherapy method, read-out: MIC value (Minimum Inhibitory Concentration)
Procedure: as §1

S. epidermides IID 866 = experiment: In vitro antibacterial activity (MIC), S. epidermides IID 866; settings: sensitive disc media, Japan Society of Chemotherapy method, read-out: MIC value (Minimum Inhibitory Concentration)
Procedure: as §1

E. faecalis CSJ 1212 = experiment: In vitro antibacterial activity (MIC), E. faecalis CSJ 1212; settings: Enterococcus faecalis, CSJ1212, sensitive disc media, Japan Society of Chemotherapy method, read-out: MIC value (Minimum Inhibitory Concentration)
Procedure: as §1

S. aureus B1 = experiment: In vitro antibacterial activity (MIC), S. aureus B1; settings: Staphylococcus aureus, sensitive disc media, Japan Society of Chemotherapy method, read-out: MIC value (Minimum Inhibitory Concentration)
Procedure: as §1

SMILES | MIC (S. aureus 209P-JC) | MIC (S. aureus Smith 4) | MIC (S. epidermides IID 866) | MIC (E. faecalis CSJ 1212) | MIC (S. aureus B1)
CC[C@H]1OC(=O)[C@H](C)[C@@H](Oc2ccc([N+](=O)[O-])cc2[N+](=O)[O-])[C@H](C)[C@@H](O[C@@H]2O[C@H](C)C[C@H](N(C)C)[C@H]2O)[C@](C)(OC)C[C@@H](C)C(=O)[C@H](C)[C@H]2OC(=O)O[C@@]21C [Example 9, 3-O-(2,4-dinitro)phenyl-5-O-desosaminyl-6-O-methylerythronolide A 11,12-cyclic carbonate] | 0.1 mg/L (≈ 0.128 µM) | 0.1 mg/L (≈ 0.128 µM) | 0.1 mg/L (≈ 0.128 µM) | 0.2 mg/L (≈ 0.256 µM) | 0.78 mg/L (≈ 0.998 µM)
CC[C@H]1OC(=O)[C@H](C)[C@@H](O[C@H]2C[C@@](C)(OC)[C@@H](O)[C@H](C)O2)[C@H](C)[C@@H](O[C@@H]2O[C@H](C)C[C@H](N(C)C)[C@H]2O)[C@](C)(OC)C[C@@H](C)C(=O)[C@H](C)[C@@H](O)[C@]1(C)O [Comparative drug, 6-O-Methylerythromycin A] | 0.1 mg/L (≈ 0.134 µM) | 0.1 mg/L (≈ 0.134 µM) | 0.1 mg/L (≈ 0.134 µM) | 0.78 mg/L (≈ 1.04 µM) | > 100 mg/L
